Marks after values point to notes of the source that are not given here.
Legend:
[1] = Promoting excretion of 238Pu(IV) in mice by orally administered ligands; assay type: in vivo; conditions: of ligand by gavage three minutes after iv ^238Pu(IV); kill at 24 hours
Excerpt: (§1) Animal studies were completed using methods detailed in Radiation Protection Dosimetry, in press, P. W. Durbin et al., "In Vivo Chelation of Am(III), Pu(IV), Np(V) and U(VI) in Mice by TREN-(Me-3,2-HOPO)"; Radiation Protection Dosimetry, 17, No. 1, 1989, p. 351, P. W. Durbin et al., "Removal of ^238Pu(IV) from Mice by Polycatechoylate, -Hydroxamate or -Hydroxypyridinonate Ligands"; Radiation Research, 99, 1984, p. 85, P. W. Durbin et al., "Specific Sequestering Agents for the Actinides ..."; Radiation Research, 99, 1984, p. 106, P. W. Durbin et al., "Removal of Pu and Am from Beagles and Mice ..."; Radiation Research, 81, 1980, p. 170, R. D. Lloyd et al., and P. W. Durbin et al., "Specific Sequestering Agents for the Actinides ...". The foregoing articles are hereby incorporated by reference.
Radionuclides used in the animal studies came from a variety of sources. However, they can be purchased commercially. […]
The novel chelating agents of the present invention and comparative compounds were tested for their effectiveness in promoting excretion of ^238Pu(IV) by oral administration to mice as follows. […] The ^238Pu(IV) in skeleton, soft tissues, and separated excreta was determined by counting the ^234U L x-rays. […]

[2] = Promoting excretion of 241Am(III) in mice by injected ligand; assay type: in vivo
Excerpt: as §1
(§2) Radionuclides used in the animal studies came from a variety of sources. However, they can be purchased commercially. The ^238Pu(IV) citrate and ^241Am(III) citrate solutions were prepared for animal injection by 8- to 10-fold dilution with 0.14M NaCl (pH 4) of concentrated stock solutions (0.08M sodium citrate buffer) that had been held in frozen storage at Lawrence Berkeley Laboratory (hereinafter LBL) for several years. [The ^238Pu(IV) was originally obtained from D. R. Atherton at the University of Utah Radiobiology Laboratory, Salt Lake City. The ^241Am(III) solution had been obtained many years earlier from the LBL Actinide Chemistry group.]
One of the comparative chelating agents TREN-Me-3,2-HOPO, was also tested for effectiveness in promoting excretion of ^241Am(III), ^237Np(V), and ^232U(VI) by injection into mice, as follows: Mice, in groups of five, each received an intravenous injection of (a) 1100 Bq of ^241AM(III) in 0.2 mL of citrate buffer, (b) 150 Bq of ^232UO2Cl2 plus 3.6 mg of ^235UO2Cl2 in 0.2 mL of saline, or (c) 200 Bq of ^237NpO2Cl (7.5 mg of ^237NpO2Cl) in 0.2 mL of saline. Three to five minutes later, […] of TREN-Me-3,2-HOPO was injected intraperitoneally in 0.5 mL of saline. The mice were killed 24 hours after the actinide injection, frozen, and dissected after partial thawing. The skeleton, soft tissues, and separated excreta were radioanalyzed by counting the ^241Am gamma rays, or the alpha particles emitted by ^237Np or ^232U (and its ingrowing daughters). Removal of those actinides from mice by injected TREN-Me-3,2-HOPO is summarized in Table 5, which also includes data for mice similarly treated with CaNa3-DTPA and for actinide-injected controls. […] The structure of Am(III)-TREN-Me-3,2-HOPO is considered to resemble that of the Gd(III) complexes (see example 20). Complexation of the fraction of Np(V) that is reduced in vivo to Np(IV) is considered to resemble that of Pu(IV). Complexation of U(VI) is considered to take place through binding to UO2^2+.

[3] = Promoting excretion of 238Pu(IV) in mice by injected ligands; assay type: in vivo; conditions: ligand 30 µmol kg^-1 ip at 1 h after iv ^238Pu(IV) citrate, kill at 24 h
Excerpt: as §1, §2
The novel chelating agents of the present invention and comparative compounds were tested for their effectiveness in promoting excretion ^238Pu(IV) in nice by injected ligands as follows. Mice, in groups of five, each received an intravenous injection of 1850 Bq ^238Pu(IV) in 0.2 mL of citrate buffer. One hour later, 30 µmol/kg of ligand was injected intraperitoneally in 0.5 mL of saline. The mice were killed 24 hours after the Pu injection, frozen, and dissected after partial thawing. The ^238Pu in skeleton, soft tissues, and separated excreta was determined by counting the ^234U L x-rays. Results of removal of ^238Pu(IV) from mice by injected ligands are summarized in Table 3, which also includes data for CaNa3-DTPA and other reference ligands and the Pu-injected controls. […] While the case of multidente 1,2-HOPO and catechoylamide chelating agents, octadentates are always better chelating agents than the corresponding hexadentates and tetradentates.

[4] = In vivo acute toxicity test of injected ligands in mice
Procedure: The test of acute toxicity of novel and comparative ligands was carried out as follows. Groups of five mice were each given a single i.p. injection of […] of ligand and a day for 10 days or given two i.p. injections of […] in 8 hours. The ligand was dissolved in 0.5 to 1.0 ml of saline at pH 7 to 8. After a period of observation, the mice were killed; selected tissues were removed and fixed for histopathological examination; and unusual findings at autopsy were recorded. […]

[5] = Am(III), ligand 30 mmol.kg-1 i.p at 3 to 5 min after actinide i.v., kill at 24 h
[6] = Am(III), ligand 30 mmol.kg-1 i.p at 3 to 5 min after actinide i.v., kill at 24 h, pooled
[7] = protocol I, 100 µmol kg^-1 x 10 daily i.p., study length 11 d
[8] = protocol I, 100 µmol kg^-1 x 10 daily i.p., study length 21 d
[9] = protocol II, 500 µmol kg^-1 x 2 in 8 h, study length 8 d

## Cn1ccc(C(=O)NCCN(CCNC(=O)c2ccn(C)c(=O)c2O)CCNC(=O)c2ccn(C)c(=O)c2O)c(O)c1=O [TREN-Me-3,2-HOPO, N,N,N,-Tris[(3-hydroxy-1-methyl-2-oxo-1,2-dihydropyridin-4-yl)carboxamidoethyl]-amine]
[1]
  Pu removal by oral administration (in words): the more effective in both (by oral and injection) cases
[2]; 30 µmol/kg intraperitoneally three to five minutes after actinide
  Am content of tissues compared with controls (in words): the Am content of all tissues was greatly reduced
[2]; [5]
  percent of injected actinide ± SD at 24 h, tissues: liver: 1.0 ± 0.6^d,e percent of injected actinide
  percent of injected actinide ± SD at 24 h, tissues: skeleton: 8.1 ± 1.6^d percent of injected actinide
  percent of injected actinide ± SD at 24 h, tissues: soft tissue: 1.6 ± 0.6^d percent of injected actinide
  percent of injected actinide ± SD at 24 h, whole body: 11 ± 1.4^d,e percent of injected actinide
[2]; [6]
  percent of injected actinide at 24 h, excreta: feces and GI contents: 38% of injected actinide
  percent of injected actinide at 24 h, excreta: urine 0-24 h: 51% of injected actinide
  percent of injected actinide at 24 h, tissues: kidneys: 0.2% of injected actinide
[3]
  percent of injected ^238Pu ± SD at 24 h, tissues: liver: 5.0 ± 2.2^d percent of injected ^238Pu
  percent of injected ^238Pu ± SD at 24 h, tissues: skeleton: 10 ± 1.1% of injected ^238Pu
  percent of injected ^238Pu ± SD at 24 h, tissues: soft tissue: 2.5 ± 0.8% of injected ^238Pu
  percent of injected ^238Pu ± SD at 24 h, whole body: 18 ± 2.7^d percent of injected ^238Pu
[3]; pooled samples
  percent of injected ^238Pu at 24 h, excreta: feces and GI contents: 43.3% of injected ^238Pu
  percent of injected ^238Pu at 24 h, excreta: urine 0-24 h: 37% of injected ^238Pu
  percent of injected ^238Pu at 24 h, tissues: kidneys: 0.6% of injected ^238Pu
[4]; even at the relatively high dosage of 2x500 µmol/kg in 8 hours
  toxicity (in words): low toxicity
[4]; [7]
  no. of survivors: 5
  percent control mean + SD: body weight: 102 ± 1 percent control
  percent control mean + SD: plasma urea N: 112 ± 10 percent control
[4]; [8]
  no. of survivors: 5
  percent control mean + SD: body weight: 106 ± 4 percent control
  percent control mean + SD: plasma urea N: 120 ± 9 percent control
[4]; [9]
  no. of survivors: 19
  percent control mean + SD: body weight: 101 ± 4 percent control
  percent control mean + SD: plasma urea N: 119 ± 15 percent control
